Measured values published in publication PMC8289286, “In Silico, In Vitro, and In Vivo Evaluation of Precipitation Inhibitors in Supersaturated Lipid-Based Formulations of Venetoclax” (Molecular Pharmaceutics, 2021).
In brackets after ≈: the same amount, converted by molar mass. Like-named read-outs stand apart in the source and are kept apart here.

Experiments:
[1] = parameters: method as in PMID 28993217; conditions: cited from earlier work
[2] = cited from earlier work
[3] = Venetoclax solubility in FaSSIF and FaSSIF with dissolved PI; assay type: physicochemical; conditions: FaSSIF without PI, reference of the PI test
Method: Additionally, the solubility of venetoclax was determined in FaSSIF with dissolved PI. […] 250 μL of samples were taken at 3, 6, and 24 h and filtered through a 0.2 μm syringe filter (Whatman Spartan 13/0.2), diluted with acetonitrile (containing 0.5% (v/v) TFA), and analyzed by HPLC as described above.

[4] = Biorelevant solubility in FaSSIF and FeSSIF; assay type: physicochemical
Method: FaSSIF and fed state simulated intestinal fluid (FeSSIF) was prepared according to the instructions by biorelevant.com. FeSSIF was used directly, whereas FaSSIF was left at room temperature for 2 h prior to usage. Excess venetoclax was added to 2 mL of biorelevant media and placed in a water bath shaker at 200 shakes/min (GLS400, Grant Instruments, UK) and 37 °C. Samples were taken after 3, 6, and 24 h and centrifuged at 21,380g and 37 °C for 15 min (Mikro 200 R, Andreas Hettich GmbH & Co. KG, Germany). The supernatant was transferred to a new sample tube and centrifuged again under identical conditions. Subsequently, the supernatant was diluted with the mobile phase before analysis by HPLC.
The samples were analyzed using an Agilent 1200 series HPLC system (Agilent Technology Inc., US) that comprised a binary pump, degasser, autosampler, and variable wavelength detector. Data were analyzed using the software EZChrom Elite version 3.2. Venetoclax was separated from the sample matrix with a Zorbax Eclipse Plus-C18 column (5 μm, 4.6 mm × 150 mm) including a Zorbax Eclipse Plus-C18 guard column (5 μm, 4.6 mm × 12.5 mm) at 40 °C. The mobile phase consisted of (a) acetonitrile with 0.5% trifluoroacetic acid (TFA) and (b) water with 0.5% TFA at a ratio of 53:47 (a/b v/v) and was used at a flow rate of 1 mL/min. The injection volume was 20 μL and the detection wavelength was set to 316 nm. The limit of detection was 20 ng/mL and the limit of quantification (LOQ) was 65 ng/mL determined using the standard error of the y-intercept according to the International Council for Harmonization (ICH) Q2 guidelines.[34]

[5] = cited from earlier work; remark: listed apart in the source

solubility [3]: 5.2 ± 0.4 µg/mL (≈ 5.99 µM)
share of a 100 mg dose dissolved in 250 mL gastrointestinal fluid at FaSSIF solubility ([4]; FaSSIF, 100 mg dose in 250 mL): 1.7%
solubility ([4]; FaSSIF, 37 °C, n = 3): 6.8 ± 1.8 µg/mL (≈ 7.83 µM)
solubility increase in the fed state (FeSSIF) over FaSSIF ([4]; FeSSIF vs FaSSIF, 37 °C): 3.9 fold
share of a 100 mg dose dissolved at FeSSIF solubility ([4]; FeSSIF, 100 mg dose): 6.7%
Compound: CC1(C)CCC(CN2CCN(c3ccc(C(=O)NS(=O)(=O)c4ccc(NCC5CCOCC5)c([N+](=O)[O-])c4)c(Oc4cnc5[nH]ccc5c4)c3)CC2)=C(c2ccc(Cl)cc2)C1 [venetoclax]
amorphous solubility in FaSSIF ([1]; pH 5.3): 20.7 ± 0.5 µg/mL
amorphous solubility in FaSSIF ([1]; pH 6.9): 33.7 ± 13.5 µg/mL
amorphous solubility in FeSSIF ([1]; FeSSIF, pH 5.3): 26.4 ± 0.2 µg/mL
amorphous solubility in FeSSIF ([1]; FeSSIF, pH 6.9): 54.6 ± 2.0 µg/mL
reported amorphous solubility in FeSSIF ([1]; FeSSIF): 26.4 to 54.6 µg/mL
previously reported venetoclax bioavailability in fasted pigs [2]: 17.3 ± 5.5%
BCS classification ([5]; based on low aqueous solubility and permeability): BCS class IV
log P [5]: 5.5
